Data as given in patent publication US7645903B2, “Use of urea variants as affinity ligands” (GE Healthcare Bio-Sciences AB, priority 2002, dated 2010).

Legend:
[1] = STD-NMR control in the absence of target antibody; design: key to NMR signal, ctrl: 0 no; 1 weak; 2 strong signal; details: for NMR signal, ctrl: absence of target antibody
Method: (§1) All NMR experiments were performed at 298 K on a Bruker Avance 500 MHz spectrometer. The 1D saturation transfer difference method (STD-NMR) was used as screening assay (Mayer M. and Meyer B. 1999. Characterisation of Ligand Binding by Saturation Transfer Difference NMR Spectroscopy. Angew. Chem., Int. Ed. 38: 1784-1788). […] The two spectra are recorded in the same experiment in an interleaved fashion. […] It has been shown that the method is capable of detecting ligands with dissociation constants between 10^−3 and 10^−8 M (Mayer M. and Meyer B. 1999. Characterisation of Ligand Binding by Saturation Transfer Difference NMR Spectroscopy. Angew. Chem, Int. Ed. 38: 1784-1788). The strength of the STD-NMR signal depends upon several factors including protein size, offset and duration of the on-resonance irradiation, the dissociation rate constant and the excess of ligand. The STD-NMR method is advantageous in that the detection limits can be tuned for binding by varying the protein concentration while keeping the ligand concentration constant. Under such conditions, at higher protein concentrations the weak to medium binders are detected, whereas at lower protein concentrations only medium binders are detected. For instance, it has been shown before for another enzyme system that both μM and mM binders were detected at a protein concentration of 35 μM whereas only μM binders were detected at protein concentrations of 1 μM and 100 nM (Peng J. W., Lepre C. A., Fejzo J., Abdul-Manan N. and Moore J. M. 2001, Nuclear Magnetic Resonance-Based Approaches for Lead Generation in Drug Discovery, Methods in Enzymology. 338: 202-230). It should be noted that the signal intensity at one specific protein concentration should not be taken as a direct measure of the binding strength. […] On the other hand the signal of the μM binder became even stronger than before (Peng J. W., Lepre C. A., Fejzo J., Abdul-Manan N. and Moore J. M. 2001, Nuclear Magnetic Resonance-Based Approaches for Lead Generation in Drug Discovery, Methods in Enzymology. 338: 202-230).
(§2) Here, three different antibody concentrations were used, namely, 0.5 μM, 100 nM and 20 nM. The antibody used was a human Fab of κ-type. In all cases ligands were tested one-by-one. On-resonance irradiation was set at 0 ppm and off-resonance irradiation was set at 40 ppm. Irradiation time in each scan was 2 s and 16K data points were collected with 1024 scans in total. Compounds for testing were dissolved in DMSOd6 to a concentration of 50 mM and 5 μL of the concentrated ligand solution was added to 495 μL buffer solution. The samples thus consisted of 0.5 mM ligand, 20 mM phosphate buffer, 100 mM NaCl and […] in D2O at pD 7.5, uncorrected reading on pH-meter. Compounds were initially tested for binding with 0.5 μM antibody. Interesting ligands were further tested with protein concentrations of 100 or 20 nM. A one-dimensional ^1H-spectrum was acquired first as reference spectrum and subsequently a saturation transfer difference (STD) spectrum was acquired. Each analysis took 60 minutes on the spectrometer.
These compounds were designated as weak binders. […] Of these, three compounds AB—0000860, AB—0000910 and AB—0001250 showing a clear signal (2 in table 1) were further analysed at a second dilution of antibody concentration (conc 3 in table 1).

human Fab of κ-type = assay: STD-NMR binding test (saturation transfer difference NMR screening); design: key to NMR signal, conc 1 / NMR signal, conc 2 / NMR signal, conc 3 / NMR signal, Conc 1 (directed library) / NMR signal, Conc 2 (directed library): 0 no; 1 weak; 2 strong signal; details: for NMR signal, conc 3: 20 nM protein; for NMR signal, conc 3 / NMR signal, conc 2 / NMR signal, conc 1: 0.5 mM ligand; for NMR signal, conc 2: 100 nM protein; for NMR signal, conc 1: 500 nM protein; for binder designation from NMR screening: from signals at 500, 100 and 20 nM antibody; for NMR signal at the first dilution of antibody concentration: conc 2, 100 nM
Method: as §1, §2

SMILES	NMR signal, ctrl [1]	NMR signal, conc 3 (human Fab of κ-type)	NMR signal, conc 2 (human Fab of κ-type)	NMR signal, conc 1 (human Fab of κ-type)	also measured
N#CCc1ccc(C(=O)c2ccccc2F)s1 [AB_0001010, 2-[5-(2-fluorobenzoyl)-2-thienyl]acetonitrile]	1	2	2	2	NMR signal in the absence of target antibody ([1]; no antibody): positive NMR signal; binder designation from NMR screening (human Fab of κ-type): false positive
CC(C)=CC1=C(O)C(=O)c2ccccc2C1=O [AB_0001040, 2-hydroxy-3-(2-methyl-1-propenyl)-1,4-naphthoquinone]	0		1	1	
COc1ccc(CC(C)=O)cc1Br [AB_0000910, 3-bromo-4-methoxyphenylacetone]	0	0	2	2	NMR signal at the first dilution of antibody concentration (human Fab of κ-type): clear signal; NMR signal at a second dilution of antibody concentration (human Fab of κ-type; conc 3, 20 nM): did not show any signal
CN(C)C(=O)N(C)c1ccc(Cl)c(Cl)c1 [AB_0001250, 1-(3,4-dichlorophenyl)-1,3,3-trimethylurea]	0	1	2	2	NMR signal at the first dilution of antibody concentration (human Fab of κ-type): clear signal; binder designation from NMR screening (human Fab of κ-type): strong binders
O=C1CN(c2ccccc2)C(=O)N1c1ccccc1 [AB_0000860, 1,3-diphenylimidazolidine-2,4-dione]	0	1	2	2	NMR signal at the first dilution of antibody concentration (human Fab of κ-type): clear signal; binder designation from NMR screening (human Fab of κ-type): strong binders
Clc1ccc(OCc2noc(CSc3ccccn3)n2)cc1 [AB_0001290, 3-[(4-chlorophenoxy)methyl]-5-[(2-pyridylthio)methyl]-1,2,4-oxadiazole]	0		1	2	
c1ccc(-c2nnc3ccccc3n2)cc1 [AB_0000600, 3-phenyl-1,2,4-benzotriazine]	0		1	1	
O=C(Nc1ccc(F)cc1)Oc1noc(-c2ccccc2)n1 [AB_0000740, 5-phenyl-1,2,4-oxadiazol-3-yl n-(4-fluorophenyl)carbamate]				0	
COC(=O)C1OC1c1cc(Cl)ccc1OC (stereo not drawn) [AB_0001240, methyl 3-(5-chloro-2-methoxyphenyl)-2,3-epoxypropionate]	0		1	1	
OCC(Oc1ccccc1)c1ccccc1 (stereo not drawn) [AB_0000810, 2-phenoxy-2-phenyl-1-ethanol]	0		1	2	
COC(=O)NC(=O)c1nc(-c2ccccc2)c(C)o1 [AB_0000670, methyl n-[(5-methyl-4-phenyl-1,3-oxazol-2-yl)carbonyl]carbamate]			0	2	
CSCCNC(=O)c1nc2ccccc2c(=O)n1N [AB_0001130, 3-amino-n-[2-(methylthio)ethyl]-4-oxo-3,4-dihydroquinazoline-2-carboxamide]				0	
COC(=O)CCCN(C)C(=O)N(C)c1ccc(OC)c(Cl)c1 [AB_0001253, 4-[3-(3-Chloro-4-methoxy-phenyl)-1,3-dimethyl-ureido]-butyric acid methyl ester]					NMR signal, Conc 2 (directed library) (human Fab of κ-type; 100 nM antibody): 1; NMR signal, Conc 1 (directed library) (human Fab of κ-type; 500 nM antibody): 2
